These results are taken from patent US8778919B2, “Cyclic anilino—pyridinotriazines” (Janssen Pharmaceutica NV, priority 2005, dated 2014).

Assay [1] deals with Chang cells. The assay is described as follows: GSK-3 cellular assay (C2): 14C-D-glucose incorporation into glycogen. Format: cell-based. The note with it: increase in D-glucose incorporation into glycogen, test concentration of 10^−6 M. In short, it runs like this: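 After 3 days of culture, Chang cells were switched to serum- and glucose-free DMEM and given compound at 10^−6 M plus substrate (3 mM glucose, 0.5 μCi ¹⁴C-D-glucose) for 90 min. Glycogen was isolated by KOH extraction and ethanol precipitation, then scintillation-counted. Scores ran from 1 (10–30% increase in incorporation) to 4 (>80%).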

In assay [2] the target is CDK5/p35 human (Homo sapiens, UniProt Q00535). The assay is described as follows: Kinase profiling C3.6 CDK5/p35 human. In kind it is biochemical. The note with it: CDK5/p35, test concentration of 10^−6 M. In short, it runs like this: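 Radiometric filter-binding assay: human CDK5/p35 (5-10 mU) with 0.1 mg/ml histone H1 substrate in 8 mM MOPS pH 7.0, 0.2 mM EDTA, 10 mM Mg acetate and [γ-33P]ATP. Incubated 40 min at room temperature, stopped with phosphoric acid. Substrate 33P incorporation counted on P30 filtermat by scintillation.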

Assay [3] concerns the target CDK6/cyclinD3 human (Homo sapiens, UniProt Q00534). The assay is described as follows: Kinase profiling C3.7 CDK6/cyclinD3 human. To be noted: CDK6/cyclinD3, test concentration of 10^−6 M. Format: biochemical.
Assay [4] addresses T1, Aurora-A (h) (Homo sapiens, UniProt O14965).
T1 sequence (O14965 1-403): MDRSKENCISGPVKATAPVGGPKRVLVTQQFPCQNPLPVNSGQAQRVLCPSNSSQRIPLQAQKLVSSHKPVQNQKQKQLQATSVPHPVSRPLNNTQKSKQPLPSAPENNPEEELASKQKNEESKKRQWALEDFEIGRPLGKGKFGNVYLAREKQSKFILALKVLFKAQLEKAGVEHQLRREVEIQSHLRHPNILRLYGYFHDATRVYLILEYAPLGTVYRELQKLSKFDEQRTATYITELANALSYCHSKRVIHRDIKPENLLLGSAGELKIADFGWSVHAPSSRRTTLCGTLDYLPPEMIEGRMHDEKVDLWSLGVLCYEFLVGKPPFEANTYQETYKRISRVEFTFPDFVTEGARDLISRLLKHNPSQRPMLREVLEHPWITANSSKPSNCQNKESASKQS
The assay is described as follows: Kinase profiling C3.1 Aurora-A human. In kind it is biochemical. To be noted: test concentration of 10^−6 M. As to the method:
(§1) The in vitro inhibition of a panel of kinases was assessed using either the glass-fiber filter technology as described by Davies, S. P. et al., Biochem J. (2000), 351; p. 95-105. In the glass-fiber filter technology the activity of the kinase of interest is measured using an appropriate substrate that is incubated with the aforementioned kinase protein in the presence of (^33P) radiolabeled ATP. (^33P) Phosporylation of the substrate is subsequently measured as radioactivity bound on a glassfiber-filter.
(§2) All kinases are pre-diluted to a 10× working concentration prior to addition into the assay. The composition of the dilution buffer for each kinase is detailed below.
(§3) All substrates are dissolved and diluted to working stocks in de-ionised water, apart from histone H1 that is stored in 10× working stock in 20 mM MOPS pH 7.4.
(§4) In a final reaction volume of 25 μl, Aurora-A (h) (5-10 mU) is incubated with 8 mM MOPS pH 7.0, 0.2 mM EDTA, 200 μM LRRASLG (Kemptide), 10 mM MgAcetate and [γ-^33P-ATP] (specific activity approx. 500 cpm/pmol, concentration as required). The reaction is initiated by the addition of the MgATP mix. After incubation for 40 minutes at room temperature, the reaction is stopped by the addition of 5 μl of a 3% phosphoric acid solution. 10 μl of the reaction is then spotted onto a P30 filtermat and washed three times for 5 minutes in 50 mM phosphoric acid and once in methanol prior to drying and scintillation counting.

The target in assay [5] is Yes (h) (Homo sapiens, UniProt P07947). The assay is described as follows: Kinase profiling C3.10 Yes human. In kind it is biochemical. The note with it: test concentration of 10^−6 M. As to the method: as §1, §2, §3
as §4, with “μl, Yes” for “μl, Aurora-A”, “EDTA, 0.1 mg/ml poly(Glu, Tyr) 4:1,” for “EDTA, 200 μM LRRASLG (Kemptide),”, “a Filtermat A” for “a P30 filtermat”, “in 75” for “in 50”

CDK6/cyclinD3 human, sequence (Q00534 whole entry): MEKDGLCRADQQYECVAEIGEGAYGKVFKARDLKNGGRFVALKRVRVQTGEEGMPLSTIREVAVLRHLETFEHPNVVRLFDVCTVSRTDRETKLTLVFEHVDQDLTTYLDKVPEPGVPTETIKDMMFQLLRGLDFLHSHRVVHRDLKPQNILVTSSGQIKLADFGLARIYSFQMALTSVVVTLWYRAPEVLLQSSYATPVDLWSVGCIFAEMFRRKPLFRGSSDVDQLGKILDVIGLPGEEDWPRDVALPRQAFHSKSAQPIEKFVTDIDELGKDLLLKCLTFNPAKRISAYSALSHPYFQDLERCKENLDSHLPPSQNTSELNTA
CDK6/cyclinD3 human, sequence (P30281 whole entry partner): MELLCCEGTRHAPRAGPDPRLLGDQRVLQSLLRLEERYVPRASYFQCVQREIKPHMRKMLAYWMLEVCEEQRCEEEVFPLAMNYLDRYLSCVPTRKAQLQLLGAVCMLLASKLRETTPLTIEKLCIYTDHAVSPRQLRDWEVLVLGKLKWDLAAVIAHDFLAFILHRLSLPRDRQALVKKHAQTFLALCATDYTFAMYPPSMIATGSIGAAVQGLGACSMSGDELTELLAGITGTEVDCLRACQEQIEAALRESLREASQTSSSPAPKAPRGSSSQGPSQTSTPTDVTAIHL
CDK5/p35 human, sequence (Q00535 whole entry): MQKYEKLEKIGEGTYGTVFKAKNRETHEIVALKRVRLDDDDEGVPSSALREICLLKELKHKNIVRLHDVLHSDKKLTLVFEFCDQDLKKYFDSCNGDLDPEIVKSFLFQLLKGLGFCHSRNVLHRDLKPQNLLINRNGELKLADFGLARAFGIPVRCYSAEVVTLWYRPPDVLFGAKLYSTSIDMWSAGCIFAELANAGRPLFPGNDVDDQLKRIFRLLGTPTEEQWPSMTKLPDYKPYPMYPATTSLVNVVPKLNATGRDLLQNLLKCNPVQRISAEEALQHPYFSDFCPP
CDK5/p35 human, sequence (Q15078 whole entry partner): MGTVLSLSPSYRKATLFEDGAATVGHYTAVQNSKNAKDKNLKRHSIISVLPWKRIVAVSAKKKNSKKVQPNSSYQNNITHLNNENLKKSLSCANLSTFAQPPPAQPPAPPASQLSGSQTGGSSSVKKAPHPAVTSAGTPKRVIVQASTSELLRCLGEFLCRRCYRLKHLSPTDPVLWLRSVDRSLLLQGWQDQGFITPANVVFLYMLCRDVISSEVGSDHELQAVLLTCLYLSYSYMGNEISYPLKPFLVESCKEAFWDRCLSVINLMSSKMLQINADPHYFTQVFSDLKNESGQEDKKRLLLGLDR
Yes (h), sequence (P07947 whole entry): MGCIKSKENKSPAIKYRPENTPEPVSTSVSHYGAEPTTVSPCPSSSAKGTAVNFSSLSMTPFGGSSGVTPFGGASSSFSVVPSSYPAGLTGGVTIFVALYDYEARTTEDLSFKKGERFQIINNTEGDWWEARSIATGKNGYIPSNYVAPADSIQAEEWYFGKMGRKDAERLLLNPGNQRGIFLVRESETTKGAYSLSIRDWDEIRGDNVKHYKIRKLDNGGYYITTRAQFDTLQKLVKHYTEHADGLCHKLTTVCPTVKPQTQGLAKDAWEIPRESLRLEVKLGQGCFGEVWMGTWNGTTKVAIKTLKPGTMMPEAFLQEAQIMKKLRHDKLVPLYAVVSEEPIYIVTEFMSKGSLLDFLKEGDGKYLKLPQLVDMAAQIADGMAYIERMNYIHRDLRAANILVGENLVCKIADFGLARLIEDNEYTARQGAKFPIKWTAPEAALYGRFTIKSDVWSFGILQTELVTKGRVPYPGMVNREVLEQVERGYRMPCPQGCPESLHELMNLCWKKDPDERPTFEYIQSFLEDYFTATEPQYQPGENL

`CN1CCCc2cc(ccn2)-c2ncnc(n2)Nc2cccc(c2)CNC(=O)C1` [Compound 7]: the “C2 Score” value in assay [1] is listed as 3 (Score 3=60-80% increase). The C3.6 score in assay [2] was 4 (Score 4 = >80% inhibition). In addition, the C3.7 score in assay [3] is reported as 1 (Score 1 = 10-30% inhibition). In addition, the C3.1 score in assay [4] is 1 (Score 1 = 10-30% inhibition). Besides, the C3.10 score in assay [5] is 2 (Score 2 = 30-60% inhibition).

Regarding `O=C1NCCCc2cc(ccc2F)-c2ncnc(n2)Nc2cc(Cl)cc(c2)CN[C@H]1CO` [Compound 71], the “C2 Score” value in assay [1] was 4 (Score 4=>80% increase in D-glucose incorporation). For the same molecule, in assay [2], the C3.6 score is recorded as 4 (Score 4 = >80% inhibition). For the same molecule, the C3.7 score in assay [3] is 2 (Score 2 = 30-60% inhibition). The C3.1 score in assay [4] is on record as 2 (Score 2 = 30-60% inhibition). For the same molecule, the C3.10 score in assay [5] is 4 (Score 4 = >80% inhibition).

For `O=C1CN2CCN(CC2)Cc2cccc(c2)Nc2ncnc(n2)-c2ccnc(c2)CCCN1` [Compound 36], the “C2 Score” value in assay [1] was 4 (Score 4=>80% increase in D-glucose incorporation). The C3.6 score in assay [2] is given as 3 (Score 3 = 60-80% inhibition). Further, the C3.7 score in assay [3] is given as 1 (Score 1 = 10-30% inhibition). Besides, the C3.1 score in assay [4] is 1 (Score 1 = 10-30% inhibition). Moreover, the C3.10 score in assay [5] is 1 (Score 1 = 10-30% inhibition).

Turning to `CN1CC(=O)NCC#Cc2cc(ccn2)-c2ncnc(n2)Nc2cccc(c2)C1` [Compound 1], the “C2 Score” value in assay [1] was 3 (Score 3=60-80% increase). In addition, the C3.6 score in assay [2] is recorded as 4 (Score 4 = >80% inhibition). Besides, in assay [3], the C3.7 score is listed as 4 (Score 4 = >80% inhibition). Moreover, the C3.1 score in assay [4] is 1 (Score 1 = 10-30% inhibition). Moreover, in assay [5], the C3.10 score is 3 (Score 3 = 60-80% inhibition).

With `O=C1NCCCc2cncc(c2)-c2ncnc(n2)Nc2cccc(c2)CN[C@H]1CO` [Compound 81], the “C2 Score” value in assay [1] is given as 4 (Score 4=>80% increase in D-glucose incorporation). Moreover, the C3.6 score in assay [2] is 3 (Score 3 = 60-80% inhibition). The C3.7 score in assay [3] is on record as 1 (Score 1 = 10-30% inhibition). Moreover, in assay [4], the C3.1 score is recorded as 1 (Score 1 = 10-30% inhibition). Also, in assay [5], the C3.10 score is 1 (Score 1 = 10-30% inhibition).
